Columns and labels:
[1] = system: MC38 tumor microenvironment; assay: Fluorescence imaging of MC38 tumor sections after prophylactic vaccination; assay type: in vivo, HHD mice; settings: day 14 tumors; p<0.05 vs. untreated or DC.IL12/no peptide
Text: Day 14 MC38 tumors were harvested from HHD mice that had been vaccinated as outlined in FIG. 9B with the indicated peptides (or control PBS or DC.IL12 alone=No peptide). In FIG. 10A, six-micron tissue sections were co-stained with anti-CD8 (green) and anti-NG2 (red) antibodies and imaged by fluorescence microscopy. Blue signal=nuclear counterstain using 4′,6-diamidino-2-phenylindole (DAPI). FIG. 10B provides a summary of the mean+/−SD number of CD8^+ cells per high-power field (HPF) in MC38 tumors isolated from control or vaccinated mice as depicted in FIG. 10A. In FIG. 10C, tissue sections were co-stained with anti-CD31 (green) and anti-NG2 (red) antibodies and imaged by fluorescence microscopy. Blue signal=nuclear counterstain using DAPI. In FIG. 10D, the mean+/−SD number of CD31^+ vessels per HPF of MC38 tumors in control or vaccinated mice are summarized Representative data is depicted from 1 of 3 independent experiments performed. *p<0.05 versus DC only or untreated control mice.
Fluorescence Imaging of Tumor Sections. Tumor tissue samples were prepared and 6 micron sections prepared as previously reported (Komita et al., Cancer Res., 68:8076-8084, 2008). The following Abs were used: (for T cell analyses), rabbit anti-mouse NG2 (Millipore, Bedford, Mass.) and alexa488-conjugated anti-CD4 or -CD8β antibodies or matching isotype controls (all from BD-Biosciences); (for vascular analyses), rat anti-mouse CD31 (BD-Biosciences) and rabbit anti-mouse NG2 (Millipore) Abs; (for TBVA), rat anti-mouse CD31 (BD-Biosciences) and guinea pig anti-mouse NG2 Abs, along with anti-TBVA as described in Example 1. Imaging was performed using an Olympus Fluoview 500 Confocal microscope (Olympus America, Center Valley, Pa.).
Protective vaccines incorporating TBVA peptides promote enhanced infiltration of the TME by CD8^+ T cells in association with an inhibition of tumor vascularity. MC38 tumor lesions from all cohorts of animals with evidence of disease on day 14 (post-tumor inoculation) were isolated and immunofluorescence microscopy on tumor sections was performed. […] In marked contrast, CD4^+ T cell infiltration in the TME was sparse and the data were indistinguishable when comparing control vs. vaccinated mice (FIG. 17). […] Correlative analyses indicated an association between the anti-tumor efficacy of vaccines and their ability to promote CD8^+ T cell infiltration and reduced vascularity in the TME (FIG. 16).

MC38 colon carcinoma = assay: MC38 protection (prophylactic vaccination) model; assay type: in vivo, HHD mice
Text: FIGS. 9A-9B show a series of graphs illustrating induction of specific/protective CD8^+ T cells reactive against TASA as a consequence of DC/peptide-based vaccination. In FIG. 9A, HHD mice (five animals/cohort) were vaccinated twice (d-14, d-7) subcutaneously with PBS or with isologous DC.IL12 pulsed with PBS or synthetic peptides (Table 6) derived from the indicated TASA. In cases where more than 1 peptide was identified for a given target antigen, an equimolar pool of the indicated peptides (each 10 μM) was pulsed onto DC.IL12 and used for vaccination in the relevant cohort. One week after the second immunization, spleens were harvested and splenic CD8^+ T cells isolated using MACS-beads (Miltenyi). T cells were stimulated in vitro for 48 h using the HLA-A2^+ T2 cell line pulsed with relevant TASA vs. irrelevant HIV-nef190-198 ([…]; ref. 24) peptides. Cell-free supernatants were then recovered and IFN-γ levels by ELISA. Data are reported as mean+/−SD for triplicate ELISA determinations, and are representative of 3 independent experiments performed. *p<0.05 vs. HIV-nef control peptide responses. In FIG. 9B, HHD mice were vaccinated twice (days −14 and −7; right flank) subcutaneously with PBS or with isologous DC.IL12 pulsed with PBS or synthetic TASA peptides as indicated in FIG. 1A. In cases where more than 1 peptide is identified for a given target antigen, an equimolar pool of the indicated peptides (each 10 μM) was pulsed onto DC.IL12 and used for vaccination in the relevant cohort. One week after the booster vaccine (i.e. day zero), animals were challenged subcutaneously on their left flank with 2×10^6 MC38 colon carcinoma cells. Tumor growth was then monitored every 3-4 days through day 24. All data represent mean tumor area (in mm^2)+/−SD determined from 5 mice/cohort, and are representative of three independent experiments performed. *p<0.05 versus DC only on the indicated days.
Vaccine Experiments. For prophylactic experiments, HHD mice were immunized subcutaneously on the right flank with 100 μl PBS or PBS containing 10^6 syngenic DC.IL12 cells that had been untreated or pre-pulsed for 4 h at 37° C. with 10 μM synthetic peptide(s). Immunizations occurred on days −14 and −7, with mice subsequently receiving injections of MC38 (2×10^6) tumor cells in the left flank on d0. In all cases, treatment groups contained 5 mice per cohort. For analysis of tumor cellular composition in repeat experiments, MC38 tumors were isolated by surgical resection 10 days after tumor inoculation and prepared for fluorescence imaging, as described below. […] Mice were then untreated or treated with control, syngenic DC.IL12 or DC.IL12 (10^6 cells injected subcutaneously in the left flank on days 7 and 14) pulsed with synthetic TBVA peptides. In some assays, as indicated, in vivo antibody depletions (on days 6, 13 and 20 post-tumor inoculation to assess early involvement or on days 60 and 67 or 180 and 187 to assess late involvement) of protective CD4^+ T cells or CD8^+ T cells were performed and monitored as previously described (Zhao et al., Mol Ther., 19:805-814, 2011). In all cases, tumor size (area) was monitored every 3-4 days and is reported as mean+/−SD in mm^2.
The DLK1, EphA2, HBB, NG2, NRP1, NRP2, PDGFRβ, PSMA, RGS5, TEM1, VEGFR1 and VEGFR2 antigens were expressed in situ by blood vessel cells in the MC38 colon carcinoma TME (FIG. 14). Protection of HHD mice against a challenge with HLA-A2^neg MC38 tumor cells injected subcutaneously on day zero was assayed with immunization with TBVA-derived peptides on days −14 and −7. […]

VEGFR2: VEGFR2-derived peptide 773-781 pulsed onto DC or DC.IL12 (VIAMFFWLL; listed as Homo sapiens)
Suppression in CD31+ vessel counts in the MC38 TME [1]: somewhat less pronounced effects
Anti-tumor efficacy in MC38 protection model (MC38 colon carcinoma; DC.IL12 pulsed with a pool of 1 or more peptides derived from the indicated TBVA, vaccination d-14, d-7): +/- (+/-, p < 0.05 versus DC only for 2 consecutive time points)
Protection against HLA-A2neg MC38 tumor challenge (MC38 colon carcinoma; immunization days -14 and -7, tumor challenge day 0 (FIG. 9B)): minimal protection
